Patent US12384765B2, “Catecholamine prodrugs for use in the treatment of Parkinson's Disease” (H. Lundbeck A/S, priority 2019, dated 2025)

How the values were obtained:
[1] = Conversion of compounds in human plasma; assay type: in vitro ADME; conditions: for Observed metabolite, Incubation in human plasma: 1 μM test compound, 37° C., 0-6 hr, nd: not detected; for appearance of compound (I) / conversion in vitro: incubation in human plasma and/or human hepatocytes
Description: Frozen human plasma was thawed and then centrifuged at 3200×g for 5 min to remove debris. The pH value of the supernatant was then measured and adjusted to 7.4±0.1 by adding 1% phosphoric acid or 1 N sodium hydroxide. 2 μL of dosing solution (50 μM for test compounds and 100 μM for positive control (propantheline bromide)) was mixed with 98 μL of blank plasma to achieve 1 μM test compound and 2 μM positive control of final concentration. The mixture was incubated, and samples were withdrawn from the incubations at the pre-determined time points of 0, 0.5, 1, 2, 4 and 6 hr (in duplicate) at 37° C. in water bath. At each corresponding time point 10 μL inhibitor and 20 μL ascorbic acid and 2 μL formic acid (20%) are added, and then added 400 μL of “stop solution” (200 ng/mL tolbutamide plus 200 ng/mL labetalol in 50% ACN/MeOH) to precipitate protein. The substance was mixed thoroughly and thereafter Centrifugated at 4,000 rpm for 20 minutes. Then an aliquot of supernatant (50 μL) was transferred from each well to a sample plate and mixed with 100 μL ultrapure water. The plate was shaked at 800 rpm for about 10 minutes before submitting to LC-MS/MS analysis.
Mass spectrometer (LC-MS/MS) Shimadzu LC 20-AD Shimadzu UHPLC API 4000. Analytical column ACQUITY UPLC® BEH Phenyl 1.7 μm 2.1×50 mm. Mobile phase A: 0.1% Formic Acid in Water. Mobile phase B: 0.1% Formic Acid in Acetonitrile. […] Flow rate 0.7 mL/min.

[2] = PK experiments in rats, plasma compound (I) after oral dosing; assay type: in vivo, Han Wistar rats; conditions: for conversion to compound (I) in vivo / Observed metabolite, In vivo PK study after oral dosing (rats): oral dosing, rats
Description: Plasma was placed on water-ice following collection. Final storage at approximately −70° C.
Mobile phase B: Acetonitrile. […] Flow rate 0.5 mL/min.
The rats had unrestricted access to the diet.
Mobile phase B: Acetonitrile+0.2% formic acid. […] Flow rate 0.3 mL/min.
The rats received a standard laboratory diet Teklad 2014C. The rats had unrestricted access to the diet.

[3] = biological target: human 5-HT2B receptor (Homo sapiens (Human), UniProt P41595); assay: 5-HT2B agonist activity assay (IP1 production, HTRF); assay type: cell-based; conditions: for activity at 10 µM: read-out: 5-HT2B agonist activity, percent of control response
Chain of human 5-HT2B receptor (P41595 whole entry): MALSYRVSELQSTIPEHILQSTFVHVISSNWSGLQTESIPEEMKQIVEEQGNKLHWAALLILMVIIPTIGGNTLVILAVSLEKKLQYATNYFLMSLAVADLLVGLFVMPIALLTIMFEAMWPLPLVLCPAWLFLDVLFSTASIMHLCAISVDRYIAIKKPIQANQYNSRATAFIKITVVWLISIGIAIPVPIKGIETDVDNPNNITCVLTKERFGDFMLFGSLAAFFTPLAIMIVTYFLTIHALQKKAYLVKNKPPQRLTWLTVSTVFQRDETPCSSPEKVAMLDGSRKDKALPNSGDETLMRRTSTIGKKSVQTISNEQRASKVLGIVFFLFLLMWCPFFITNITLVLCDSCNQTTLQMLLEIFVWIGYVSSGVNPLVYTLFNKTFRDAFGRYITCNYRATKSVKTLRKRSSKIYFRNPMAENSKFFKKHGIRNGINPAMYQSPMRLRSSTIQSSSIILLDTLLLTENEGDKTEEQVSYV
Description: Evaluation of the agonist activity of compounds (I), (Ia), (Ib), (Ic), (Ia-iab), compound (2), compound (9), compound (15), compound (27), A2, A3, and A7 at the human 5-HT2B receptor was performed by Eurofins/Cerep (France) measuring the compound effects on inositol monophosphate (IP1) production using the HTRF detection method. Briefly, the human 5-HT2B receptor was expressed in transfected CHO cells. The cells were suspended in a buffer containing 10 mM Hepes/NaOH (pH 7.4), 4.2 mM KCl, 146 mM NaCl, 1 mM CaCl2, 0.5 mM MgCl2, 5.5 mM glucose and 50 mM LiCl, then distributed in microplates at a density of 4100 cells/well and incubated for 30 minutes at 37° C. in the presence of buffer (basal control), test compound or reference agonist. For stimulated control measurement, separate assay wells contained 1 μM 5-HT. Following incubation, the cells were lysed and the fluorescence acceptor (fluorophen D2-labeled IP1) and fluorescence donor (anti-IP1 antibody labeled with europium cryptate) were added. After 60 minutes at room temperature, the fluorescence transfer was measured at lambda(Ex) 337 nm and lambda(Em) 620 and 665 nm using a microplate reader (Rubystar, BMG). The IP1 concentration was determined by dividing the signal measured at 665 nm by that measured at 620 nm (ratio). The results were expressed as a percent of the control response to 1 μM 5-HT. The standard reference agonist was 5-HT, which was tested in each experiment at several concentrations to generate a concentration-response curve from which its EC50 value is calculated as described above for dopamine functional assays.

Structure (SMILES) | Observed metabolite, Incubation in human plasma [1] | appearance of compound (I) / conversion in vitro [1] | activity at 10 µM [3] | further results
CCCN1CCC[C@@H]2Cc3c(ccc(O)c3O[C@@H]3O[C@H](C(=O)OCC)[C@@H](OC(=O)C(C)(C)C)[C@H](OC(=O)C(C)(C)C)[C@H]3OC(=O)C(C)(C)C)C[C@H]21 [Compound (14), (2S,3S,4S,5R,6S)-2-(ethoxycarbonyl)-6-(((4aR,10aR)-7-hydroxy-1-propyl-1,2,3,4,4a,5,10,10a-octahydrobenzo[g]quinolin-6-yl)oxy)tetrahydro-2H-pyran-3,4,5-triyl tris(2,2-dimethylpropanoate)] | Compound (6) | – | – | –
CCCN1CCC[C@@H]2Cc3c(ccc(OC)c3O[C@@H]3O[C@H](C(=O)O)[C@@H](O)[C@H](O)[C@H]3O)C[C@H]21 [Compound (15), (2S,3S,4S,5R,6S)-3,4,5-trihydroxy-6-(((4aR,10aR)-7-methoxy-1-propyl-1,2,3,4,4a,5,10,10a-octahydrobenzo[g]quinolin-6-yl)oxy)tetrahydro-2H-pyran-2-carboxylic acid] | – | no appearance of compound (I) | 0% | conversion to compound (I) in vivo [2]: showed conversion in vivo
CCCN1CCC[C@@H]2Cc3c(ccc(O[C@@H]4O[C@H](C(=O)OC)[C@@H](OC(C)=O)[C@H](OC(C)=O)[C@H]4OC(C)=O)c3OC(C)=O)C[C@H]21 [Compound A3, (2S,3R,4S,5S,6S)-2-(((4aR,10aR)-6-Acetoxy-1-propyl-1,2,3,4,4a,5,10,10a-octahydrobenzo[g]quinolin-7-yl)oxy)-6-(methoxycarbonyl)tetrahydro-2H-pyran-3,4,5-triyl triacetate] | compound (27) | – | – | 5-HT2B agonist activity, percent of control response ([3]; @ 10 μM): 3% @ 10 μM
CCCN1CCC[C@@H]2Cc3c(ccc(OC(=O)C(C)(C)C)c3OC(=O)C(C)(C)C)C[C@H]21 [(Ic), reference compound] | – | – | -5% | plasma concentrations of compound (I) after oral dosing (in words) ([2]; oral dosing to Wistar rats): extremely low
CCCN1CCC[C@@H]2Cc3c(ccc(O)c3O[C@@H]3O[C@H](C(=O)OC)[C@@H](OC(=O)C(C)(C)C)[C@H](OC(=O)C(C)(C)C)[C@H]3OC(=O)C(C)(C)C)C[C@H]21 [Compound (26), (2S,3S,4S,5R,6S)-2-(methoxycarbonyl)-6-(((4aR,10aR)-7-hydroxy-1-propyl-1,2,3,4,4a,5,10,10a-octahydrobenzo[g]quinolin-6-yl)oxy)tetrahydro-2H-pyran-3,4,5-triyl tris(2,2-dimethylpropanoate)] | Compound (6) | – | – | –
CCCN1CCC[C@@H]2Cc3c(ccc(OCc4ccccc4)c3O[C@@H]3O[C@H](C(=O)O)[C@@H](O)[C@H](O)[C@H]3O)C[C@H]21 [Compound (4), (2S,3S,4S,5R,6S)-6-(((4aR,10aR)-7-(benzyloxy)-1-propyl-1,2,3,4,4a,5,10,10a-octahydrobenzo[g]quinolin-6-yl)oxy)-3,4,5-trihydroxytetrahydro-2H-pyran-2-carboxylic acid] | Compound A2 | – | – | –
CCCN1CCC[C@@H]2Cc3c(ccc(O[C@@H]4O[C@H](C(=O)OC)[C@@H](OC(C)=O)[C@H](OC(C)=O)[C@H]4OC(C)=O)c3O)C[C@H]21 [Compound (27), (2S,3R,4S,5S,6S)-2-(((4aR,10aR)-6-hydroxy-1-propyl-1,2,3,4,4a,5,10,10a-octahydrobenzo[g]quinolin-7-yl)oxy)-6-(methoxycarbonyl)tetrahydro-2H-pyran-3,4,5-triyl triacetate] | Compound (Id-ib) | – | 2% | Observed metabolite, In vivo PK study after oral dosing (rats) [2]: Compound (I)
CCCN1CCC[C@@H]2Cc3c(ccc(O)c3O[C@@H]3O[C@H](C(=O)OC)[C@@H](OC(C)=O)[C@H](OC(C)=O)[C@H]3OC(C)=O)C[C@H]21 [Compound (2), (2S,3R,4S,5S,6S)-2-(((4aR,10aR)-7-hydroxy-1-propyl-1,2,3,4,4a,5,10,10a-octahydrobenzo[g]quinolin-6-yl)oxy)-6-(methoxycarbonyl)tetrahydro-2H-pyran-3,4,5-triyl triacetate] | Compound (Id-ia) | no appearance of compound (I) | 10% | Observed metabolite, In vivo PK study after oral dosing (rats) [2]: Compound (I); conversion to compound (I) in vivo [2]: showed conversion in vivo
CCCN1CCC[C@@H]2Cc3c(ccc(O)c3O[C@@H]3OC(C(=O)O)=C[C@H](O)[C@H]3O)C[C@H]21 [Compound (9), (2R,3R,4S)-3,4-dihydroxy-2-(((4aR,10aR)-7-hydroxy-1-propyl-1,2,3,4,4a,5,10,10a-octahydrobenzo[g]quinolin-6-yl)oxy)-3,4-dihydro-2H-pyran-6-carboxylic acid] | – | no appearance of compound (I) | 9% | conversion to compound (I) in vivo [2]: showed conversion in vivo
CCCN1CCC[C@@H]2Cc3c(ccc(O)c3O[C@@H]3O[C@H](C(=O)OCC)[C@@H](OC(C)=O)[C@H](OC(C)=O)[C@H]3OC(C)=O)C[C@H]21 [Compound (11), (2S,3S,4S,5R,6S)-2-(ethoxycarbonyl)-6-(((4aR,10aR)-7-hydroxy-1-propyl-1,2,3,4,4a,5,10,10a-octahydrobenzo[g]quinolin-6-yl)oxy)tetrahydro-2H-pyran-3,4,5-triyl triacetate] | – | converted to compound (Id-ia) | – | –
CCCN1CCC[C@@H]2Cc3c(ccc(OCc4ccccc4)c3O)C[C@H]21.I [Compound A2, (4aR,10aR)-7-(Benzyloxy)-1-propyl-1,2,3,4,4a,5,10,10a-octahydrobenzo[g]quinolin-6-ol hydroiodide] | – | – | 30% | Observed metabolite, In vivo PK study after oral dosing (rats) [2]: Compound (I)
CCCN1CCC[C@@H]2Cc3c(ccc(O)c3O[C@@H]3OC(C(=O)OC)=C[C@H](OC(C)=O)[C@H]3OC(C)=O)C[C@H]21 [Compound (3), (2R,3R,4S)-2-(((4aR,10aR)-7-hydroxy-1-propyl-1,2,3,4,4a,5,10,10a-octahydrobenzo[g]quinolin-6-yl)oxy)-6-(methoxycarbonyl)-3,4-dihydro-2H-pyran-3,4-diyl diacetate] | Compound (9) | – | – | –
CCCN1CCC[C@@H]2Cc3c(ccc(O[C@@H]4O[C@H](C(=O)OC)[C@@H](OC(C)=O)[C@H](OC(C)=O)[C@H]4OC(C)=O)c3O[C@@H]3O[C@H](C(=O)OC)[C@@H](OC(C)=O)[C@H](OC(C)=O)[C@H]3OC(C)=O)C[C@H]21 [Compound I2, methyl (2S,3S,4S,5R,6S)-6-[[(4aR,10aR)-1-propyl-6-[(2S,3R,4S,5S,6S)-3,4,5-triacetoxy-6-methoxycarbonyl-tetrahydropyran-2-yl]oxy-3,4,4a,5,10,10a-hexahydro-2H-benzo[g]quinolin-7-yl]oxy]-3,4,5-triacetoxy-tetrahydropyran-2-carboxylate] | – | no vitro conversion | – | –
